Measurements from ChEMBL document CHEMBL3991601, “The target landscape of clinical kinase drugs” (Science, 2017).
Counter-ions that a name gives are not always drawn. Activity calls are given as the source filed them. Cut-off read from the data, not from the text of the source, for most assays here: actives have a measured Kd and inactives only a lower limit.

Experiments:
Rab-like protein 3 = target: T1, Rab-like protein 3 (Homo sapiens, UniProt Q5HYI8)
T1 sequence (Q5HYI8 whole entry): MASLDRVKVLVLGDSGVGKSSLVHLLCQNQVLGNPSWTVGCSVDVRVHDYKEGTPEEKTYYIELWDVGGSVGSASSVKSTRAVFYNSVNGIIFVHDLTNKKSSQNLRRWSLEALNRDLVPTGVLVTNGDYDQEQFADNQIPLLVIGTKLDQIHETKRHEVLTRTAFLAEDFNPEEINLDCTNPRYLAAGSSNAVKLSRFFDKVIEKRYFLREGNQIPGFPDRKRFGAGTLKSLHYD

[1] = target: T2, Non-receptor tyrosine-protein kinase TNK1 (Homo sapiens, UniProt Q13470)
T2 sequence (Q13470 whole entry): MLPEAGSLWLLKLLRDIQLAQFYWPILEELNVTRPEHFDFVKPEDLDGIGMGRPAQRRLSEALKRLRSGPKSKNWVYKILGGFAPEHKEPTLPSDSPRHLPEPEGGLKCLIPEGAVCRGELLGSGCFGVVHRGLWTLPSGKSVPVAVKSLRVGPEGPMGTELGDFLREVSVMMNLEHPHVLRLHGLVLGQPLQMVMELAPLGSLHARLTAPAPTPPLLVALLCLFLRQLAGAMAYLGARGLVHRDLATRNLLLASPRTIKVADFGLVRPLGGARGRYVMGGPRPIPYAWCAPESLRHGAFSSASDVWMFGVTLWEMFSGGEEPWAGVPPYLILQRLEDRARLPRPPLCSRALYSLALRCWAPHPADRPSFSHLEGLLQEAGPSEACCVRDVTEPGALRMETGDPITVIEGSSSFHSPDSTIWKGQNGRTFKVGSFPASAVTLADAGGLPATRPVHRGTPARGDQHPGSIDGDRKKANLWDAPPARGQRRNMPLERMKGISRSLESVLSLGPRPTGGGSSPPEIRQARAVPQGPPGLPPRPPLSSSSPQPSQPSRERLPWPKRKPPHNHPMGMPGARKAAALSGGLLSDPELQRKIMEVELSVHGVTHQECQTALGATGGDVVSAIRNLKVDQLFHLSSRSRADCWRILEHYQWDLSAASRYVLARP

Myosin-14 = Myosin-14 (Homo sapiens, UniProt Q7Z406)
Chain of Myosin-14 (Q7Z406 whole entry): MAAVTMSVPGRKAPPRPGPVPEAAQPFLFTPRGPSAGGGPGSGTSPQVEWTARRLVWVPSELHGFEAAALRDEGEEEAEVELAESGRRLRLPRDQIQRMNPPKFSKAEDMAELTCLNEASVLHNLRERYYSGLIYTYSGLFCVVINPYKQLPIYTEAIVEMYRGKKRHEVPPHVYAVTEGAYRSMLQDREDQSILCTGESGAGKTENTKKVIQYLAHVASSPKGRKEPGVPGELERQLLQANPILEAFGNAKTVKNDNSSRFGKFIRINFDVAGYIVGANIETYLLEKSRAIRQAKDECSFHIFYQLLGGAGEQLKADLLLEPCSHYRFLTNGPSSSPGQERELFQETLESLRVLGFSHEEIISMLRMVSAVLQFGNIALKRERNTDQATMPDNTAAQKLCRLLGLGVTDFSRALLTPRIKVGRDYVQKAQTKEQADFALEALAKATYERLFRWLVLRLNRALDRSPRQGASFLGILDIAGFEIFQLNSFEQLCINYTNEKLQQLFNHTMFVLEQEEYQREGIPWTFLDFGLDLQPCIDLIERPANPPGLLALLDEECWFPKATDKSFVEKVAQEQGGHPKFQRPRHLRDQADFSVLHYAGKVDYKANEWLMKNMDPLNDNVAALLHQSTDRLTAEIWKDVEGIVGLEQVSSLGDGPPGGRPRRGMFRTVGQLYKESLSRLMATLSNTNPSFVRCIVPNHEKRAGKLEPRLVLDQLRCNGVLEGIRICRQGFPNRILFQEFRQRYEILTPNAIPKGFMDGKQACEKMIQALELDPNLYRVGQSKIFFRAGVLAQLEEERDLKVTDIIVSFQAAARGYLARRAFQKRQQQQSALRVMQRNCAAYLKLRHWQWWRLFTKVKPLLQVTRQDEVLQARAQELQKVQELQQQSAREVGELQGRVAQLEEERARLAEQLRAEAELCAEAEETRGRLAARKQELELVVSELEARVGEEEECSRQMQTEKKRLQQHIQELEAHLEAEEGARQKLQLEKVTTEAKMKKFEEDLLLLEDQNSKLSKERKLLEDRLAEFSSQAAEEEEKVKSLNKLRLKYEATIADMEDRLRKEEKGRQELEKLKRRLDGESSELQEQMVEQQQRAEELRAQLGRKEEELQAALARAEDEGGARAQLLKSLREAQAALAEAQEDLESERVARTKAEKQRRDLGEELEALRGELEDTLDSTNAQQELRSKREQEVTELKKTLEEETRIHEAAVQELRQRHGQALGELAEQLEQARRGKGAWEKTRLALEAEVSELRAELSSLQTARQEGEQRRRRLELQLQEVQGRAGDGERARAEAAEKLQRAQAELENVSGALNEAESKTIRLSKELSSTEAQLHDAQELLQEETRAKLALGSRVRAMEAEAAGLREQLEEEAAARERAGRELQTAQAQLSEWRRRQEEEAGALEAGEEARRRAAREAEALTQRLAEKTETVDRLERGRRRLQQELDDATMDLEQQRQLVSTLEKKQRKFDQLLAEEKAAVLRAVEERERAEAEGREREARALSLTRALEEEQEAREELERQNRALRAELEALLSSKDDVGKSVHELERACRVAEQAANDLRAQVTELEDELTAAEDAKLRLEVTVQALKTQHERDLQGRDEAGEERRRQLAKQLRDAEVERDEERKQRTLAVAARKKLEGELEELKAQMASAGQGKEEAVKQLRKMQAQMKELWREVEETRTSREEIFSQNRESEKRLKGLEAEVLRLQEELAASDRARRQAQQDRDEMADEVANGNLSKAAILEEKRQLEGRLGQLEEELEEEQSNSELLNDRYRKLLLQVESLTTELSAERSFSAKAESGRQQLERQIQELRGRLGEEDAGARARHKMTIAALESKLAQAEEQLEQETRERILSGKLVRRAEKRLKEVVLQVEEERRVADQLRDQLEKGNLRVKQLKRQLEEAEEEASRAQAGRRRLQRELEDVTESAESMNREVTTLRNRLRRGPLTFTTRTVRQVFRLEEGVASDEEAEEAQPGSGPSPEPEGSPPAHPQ

[2] = target: T3, Beta-adrenergic receptor kinase 1 (Homo sapiens, UniProt P25098)
T3 sequence (P25098 whole entry): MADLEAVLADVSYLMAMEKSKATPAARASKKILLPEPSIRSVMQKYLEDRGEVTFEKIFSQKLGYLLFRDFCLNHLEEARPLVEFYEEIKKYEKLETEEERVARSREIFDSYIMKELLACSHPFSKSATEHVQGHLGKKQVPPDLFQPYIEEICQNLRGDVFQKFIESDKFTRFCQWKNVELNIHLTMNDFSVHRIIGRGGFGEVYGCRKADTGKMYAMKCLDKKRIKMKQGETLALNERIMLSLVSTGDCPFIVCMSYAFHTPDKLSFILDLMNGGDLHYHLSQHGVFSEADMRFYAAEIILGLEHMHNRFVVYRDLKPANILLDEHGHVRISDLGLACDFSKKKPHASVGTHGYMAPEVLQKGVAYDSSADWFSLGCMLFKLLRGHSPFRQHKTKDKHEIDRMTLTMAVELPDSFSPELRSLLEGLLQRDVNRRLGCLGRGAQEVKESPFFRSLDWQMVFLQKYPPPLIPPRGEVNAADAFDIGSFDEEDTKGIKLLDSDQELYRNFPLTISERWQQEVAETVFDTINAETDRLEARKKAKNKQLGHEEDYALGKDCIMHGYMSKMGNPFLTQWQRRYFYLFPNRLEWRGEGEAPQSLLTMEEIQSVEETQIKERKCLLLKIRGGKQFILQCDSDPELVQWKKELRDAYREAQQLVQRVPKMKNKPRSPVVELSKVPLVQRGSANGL

[3] = target: Bone morphogenetic protein receptor type-1B (Homo sapiens, UniProt O00238)
[4] = target: Mitogen-activated protein kinase kinase kinase kinase 1 (Homo sapiens, UniProt Q92918)
[5] = target: Mitogen-activated protein kinase 9 (Homo sapiens, UniProt P45984)
Chain of Mitogen-activated protein kinase 9 (P45984 whole entry): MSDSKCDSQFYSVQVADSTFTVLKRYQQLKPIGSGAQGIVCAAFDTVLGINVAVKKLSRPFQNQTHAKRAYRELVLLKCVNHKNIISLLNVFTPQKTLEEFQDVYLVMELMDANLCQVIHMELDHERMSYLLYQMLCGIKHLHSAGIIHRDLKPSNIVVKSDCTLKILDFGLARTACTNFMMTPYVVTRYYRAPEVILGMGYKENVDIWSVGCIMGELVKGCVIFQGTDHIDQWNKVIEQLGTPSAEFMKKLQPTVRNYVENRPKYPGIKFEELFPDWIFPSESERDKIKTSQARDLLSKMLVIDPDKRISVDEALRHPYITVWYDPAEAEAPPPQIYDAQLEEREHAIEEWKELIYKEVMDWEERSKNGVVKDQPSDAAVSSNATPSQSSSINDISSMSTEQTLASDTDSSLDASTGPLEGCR

[6] = target: Mitogen-activated protein kinase 3 (Homo sapiens, UniProt P27361)
Chain of Mitogen-activated protein kinase 3 (P27361 whole entry): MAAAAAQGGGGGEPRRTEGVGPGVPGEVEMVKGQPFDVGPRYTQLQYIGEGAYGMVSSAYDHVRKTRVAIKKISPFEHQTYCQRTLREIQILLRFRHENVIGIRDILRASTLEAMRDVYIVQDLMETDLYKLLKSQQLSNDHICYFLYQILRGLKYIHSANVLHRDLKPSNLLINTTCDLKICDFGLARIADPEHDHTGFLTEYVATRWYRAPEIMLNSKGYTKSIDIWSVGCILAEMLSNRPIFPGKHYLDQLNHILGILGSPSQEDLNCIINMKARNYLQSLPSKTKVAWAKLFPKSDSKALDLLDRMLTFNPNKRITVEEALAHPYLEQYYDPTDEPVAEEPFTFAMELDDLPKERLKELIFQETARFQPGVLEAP

[7] = target: MAP kinase-activated protein kinase 2 (Homo sapiens, UniProt P49137)
[8] = target: Tyrosine-protein kinase BTK (Homo sapiens, UniProt Q06187)
[9] = target: Mitogen-activated protein kinase kinase kinase kinase 5 (Homo sapiens, UniProt Q9Y4K4)
[10] = target: Serine/threonine-protein kinase PAK 4 (Homo sapiens, UniProt O96013)
[11] = target: Dual specificity testis-specific protein kinase 1 (Homo sapiens, UniProt Q15569)
[12] = target: TRAF2 and NCK-interacting protein kinase (Homo sapiens, UniProt Q9UKE5)
[13] = target: Glycogen synthase kinase-3 beta (Homo sapiens, UniProt P49841)
Chain of Glycogen synthase kinase-3 beta (P49841 whole entry): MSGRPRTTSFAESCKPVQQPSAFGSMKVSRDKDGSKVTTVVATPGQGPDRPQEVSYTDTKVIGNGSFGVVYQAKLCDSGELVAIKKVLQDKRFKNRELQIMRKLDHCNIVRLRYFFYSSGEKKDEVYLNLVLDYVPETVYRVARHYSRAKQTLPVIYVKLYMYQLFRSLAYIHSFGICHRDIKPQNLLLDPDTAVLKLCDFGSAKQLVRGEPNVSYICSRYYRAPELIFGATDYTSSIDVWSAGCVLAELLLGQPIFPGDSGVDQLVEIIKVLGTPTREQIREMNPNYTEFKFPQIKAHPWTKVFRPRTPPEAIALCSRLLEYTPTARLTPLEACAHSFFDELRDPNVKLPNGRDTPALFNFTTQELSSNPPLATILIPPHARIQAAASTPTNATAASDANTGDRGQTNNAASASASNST

[14] = target: Cyclin-dependent kinase 5 (Homo sapiens, UniProt Q00535)
Chain of Cyclin-dependent kinase 5 (Q00535 whole entry): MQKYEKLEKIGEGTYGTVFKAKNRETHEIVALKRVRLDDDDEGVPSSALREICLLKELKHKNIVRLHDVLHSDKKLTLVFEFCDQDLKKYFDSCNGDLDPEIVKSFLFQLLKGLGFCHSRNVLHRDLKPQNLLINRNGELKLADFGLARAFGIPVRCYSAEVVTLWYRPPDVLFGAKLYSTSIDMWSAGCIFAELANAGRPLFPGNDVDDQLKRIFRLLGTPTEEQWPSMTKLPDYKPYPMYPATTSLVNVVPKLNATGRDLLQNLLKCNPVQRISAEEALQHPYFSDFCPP

[15] = target: Casein kinase II subunit alpha' (Homo sapiens, UniProt P19784)
Chain of Casein kinase II subunit alpha' (P19784 whole entry): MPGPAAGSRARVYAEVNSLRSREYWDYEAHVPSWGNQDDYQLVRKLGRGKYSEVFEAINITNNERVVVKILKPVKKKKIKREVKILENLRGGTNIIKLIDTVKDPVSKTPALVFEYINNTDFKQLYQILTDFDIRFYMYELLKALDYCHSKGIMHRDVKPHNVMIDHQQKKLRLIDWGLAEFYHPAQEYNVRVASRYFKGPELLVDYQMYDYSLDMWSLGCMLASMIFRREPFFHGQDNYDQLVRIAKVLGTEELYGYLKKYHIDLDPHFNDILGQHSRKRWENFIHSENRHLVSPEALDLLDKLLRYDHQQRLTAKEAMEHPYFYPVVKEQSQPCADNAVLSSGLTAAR

[16] = target: Cyclin-dependent kinase 2 (Homo sapiens, UniProt P24941)
[17] = target: Epidermal growth factor receptor (Homo sapiens, UniProt P00533)
Chain of Epidermal growth factor receptor (P00533 whole entry): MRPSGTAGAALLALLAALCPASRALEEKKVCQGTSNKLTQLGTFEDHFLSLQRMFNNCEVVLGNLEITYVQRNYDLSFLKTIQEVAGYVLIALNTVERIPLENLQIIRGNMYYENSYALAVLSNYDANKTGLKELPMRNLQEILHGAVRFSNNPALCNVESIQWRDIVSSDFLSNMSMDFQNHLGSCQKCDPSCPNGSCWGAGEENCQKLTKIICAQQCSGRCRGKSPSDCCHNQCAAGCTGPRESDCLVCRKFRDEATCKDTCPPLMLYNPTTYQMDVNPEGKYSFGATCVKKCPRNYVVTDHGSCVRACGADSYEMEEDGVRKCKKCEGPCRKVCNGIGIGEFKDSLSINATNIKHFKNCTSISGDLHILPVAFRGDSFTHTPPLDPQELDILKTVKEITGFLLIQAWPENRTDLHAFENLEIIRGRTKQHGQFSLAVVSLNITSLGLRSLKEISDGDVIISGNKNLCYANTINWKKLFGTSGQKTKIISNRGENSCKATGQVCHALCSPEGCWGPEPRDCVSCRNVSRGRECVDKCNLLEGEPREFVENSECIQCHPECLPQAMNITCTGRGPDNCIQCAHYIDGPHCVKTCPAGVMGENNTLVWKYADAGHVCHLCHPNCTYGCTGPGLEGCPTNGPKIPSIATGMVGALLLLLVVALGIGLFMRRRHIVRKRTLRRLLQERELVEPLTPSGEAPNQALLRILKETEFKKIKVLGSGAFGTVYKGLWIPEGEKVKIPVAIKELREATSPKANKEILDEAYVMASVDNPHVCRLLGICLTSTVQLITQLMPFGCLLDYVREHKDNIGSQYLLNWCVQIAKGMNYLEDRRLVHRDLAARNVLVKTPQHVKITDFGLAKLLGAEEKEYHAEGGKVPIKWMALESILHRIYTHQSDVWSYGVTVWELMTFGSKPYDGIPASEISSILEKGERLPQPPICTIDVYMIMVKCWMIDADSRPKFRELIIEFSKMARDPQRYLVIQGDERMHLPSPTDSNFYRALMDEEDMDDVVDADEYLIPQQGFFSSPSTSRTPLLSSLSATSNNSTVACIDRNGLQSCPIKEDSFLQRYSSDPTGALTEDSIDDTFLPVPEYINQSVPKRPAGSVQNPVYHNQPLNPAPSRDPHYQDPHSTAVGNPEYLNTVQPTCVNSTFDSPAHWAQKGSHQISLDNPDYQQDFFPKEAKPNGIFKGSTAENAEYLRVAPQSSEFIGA
Note: in the data inactive means no Kd found up to 30 µM.

SMILES | Kd (Rab-like protein 3) | Kd [1] | Kd (Myosin-14) | Kd [2] | Kd [3] | Kd [4] | Kd [5] | Kd [6] | Kd [7] | Kd [8] | Kd [9] | Kd [10] | Kd [11] | Kd [12] | Kd [13] | Kd [14] | Kd [15] | Kd [16] | Kd [17]
COc1cc2ncnc(Oc3cccc(NC(=O)Nc4cc(C(C)(C)C(F)(F)F)on4)c3)c2cc1OC [CEP-32496] | > 30 µM (inactive) | > 30 µM (inactive) | > 30 µM (inactive) | > 30 µM (inactive) | > 30 µM (inactive) | > 30 µM (inactive) | 0.148 µM (active) | > 30 µM (inactive) | 0.49 µM (active) | > 30 µM (inactive) | 20.1 µM (active) | > 30 µM (inactive) | > 30 µM (inactive) | > 30 µM (inactive) | > 30 µM (inactive) | > 30 µM (inactive) | > 30 µM (inactive) | > 30 µM (inactive) | 
Cc1cc(Nc2ncc(Cl)c(Nc3ccccc3S(=O)(=O)C(C)C)n2)c(OC(C)C)cc1C1CCNCC1 [CERITINIB] | > 30 µM (inactive) | 0.027 µM (active) | > 30 µM (inactive) | > 30 µM (inactive) | > 30 µM (inactive) | > 30 µM (inactive) | > 30 µM (inactive) | > 30 µM (inactive) | > 30 µM (inactive) | > 30 µM (inactive) | > 30 µM (inactive) | > 30 µM (inactive) | > 30 µM (inactive) | > 30 µM (inactive) | > 30 µM (inactive) | > 30 µM (inactive) | > 30 µM (inactive) | > 30 µM (inactive) | 
COCC(=O)NC/C=C/c1ccc2ncnc(Nc3ccc(Oc4ccc(C)nc4)c(C)c3)c2c1 [CP-724714] | > 30 µM (inactive) | > 30 µM (inactive) | > 30 µM (inactive) | > 30 µM (inactive) | > 30 µM (inactive) | > 30 µM (inactive) | > 30 µM (inactive) | > 30 µM (inactive) | > 30 µM (inactive) | > 30 µM (inactive) | > 30 µM (inactive) | > 30 µM (inactive) | > 30 µM (inactive) | > 30 µM (inactive) | > 30 µM (inactive) | > 30 µM (inactive) | > 30 µM (inactive) | > 30 µM (inactive) | 
C#Cc1cccc(Nc2ncnc3cc(OC)c(OCCCCCCC(=O)NO)cc23)c1 [CUDC-101] | > 30 µM (inactive) | > 30 µM (inactive) | > 30 µM (inactive) | > 30 µM (inactive) | > 30 µM (inactive) | > 30 µM (inactive) | > 30 µM (inactive) | > 30 µM (inactive) | > 30 µM (inactive) | > 30 µM (inactive) | > 30 µM (inactive) | > 30 µM (inactive) | > 30 µM (inactive) | > 30 µM (inactive) | > 30 µM (inactive) | > 30 µM (inactive) | > 30 µM (inactive) | > 30 µM (inactive) | 
CCS(=O)(=O)N1CCN(c2ccc(Nc3ncc(C(N)=O)c(NC4CC4)n3)cc2)CC1 [Cerdulatinib Hydrochloride] | > 30 µM (inactive) | > 30 µM (inactive) |  | > 30 µM (inactive) | > 30 µM (inactive) | > 30 µM (inactive) | 1.43 µM (active) | > 30 µM (inactive) | > 30 µM (inactive) | > 30 µM (inactive) | 19.2 µM (active) | 0.851 µM (active) | > 30 µM (inactive) | > 30 µM (inactive) | > 30 µM (inactive) | > 30 µM (inactive) | 16.3 µM (active) |  | > 30 µM (inactive)
Cc1nc2cc(-n3ncc(C(=O)c4cc5ccccc5[nH]4)c3N)ccc2[nH]1 [FGFR INHIBITOR DEBIO 1347] | > 30 µM (inactive) | > 30 µM (inactive) |  | > 30 µM (inactive) | > 30 µM (inactive) | > 30 µM (inactive) | > 30 µM (inactive) | > 30 µM (inactive) | 0.018 µM | > 30 µM (inactive) | > 30 µM (inactive) | > 30 µM (inactive) | > 30 µM (inactive) | > 30 µM (inactive) | > 30 µM (inactive) | > 30 µM (inactive) | > 30 µM (inactive) |  | > 30 µM (inactive)
CN1CCN(CCOc2cc(OC3CCOCC3)c3c(Nc4c(Cl)ccc5c4OCO5)ncnc3c2)CC1 [SARACATINIB] | > 30 µM (inactive) | > 30 µM (inactive) | > 30 µM (inactive) | > 30 µM (inactive) | 0.029 µM | > 30 µM (inactive) | > 30 µM (inactive) | > 30 µM (inactive) | > 30 µM (inactive) | 10.2 µM (active) | 27.1 µM | > 30 µM (inactive) | > 30 µM (inactive) | 1.38 µM (active) | > 30 µM (inactive) | > 30 µM (inactive) | > 30 µM (inactive) | > 30 µM (inactive) | 

Next, values leading:

Kd (Rab-like protein 3) | Kd [1] | Kd (Myosin-14) | Kd [2] | Kd [3] | Kd [4] | Kd [5] | Kd [6] | Kd [7] | Kd [8] | Kd [9] | Kd [10] | Kd [11] | Kd [12] | Kd [13] | Kd [14] | Kd [15] | Kd [16] | Kd [17] | SMILES
 | > 30 µM (inactive) | > 30 µM (inactive) | > 30 µM (inactive) | > 30 µM (inactive) | > 30 µM (inactive) | > 30 µM (inactive) | > 30 µM (inactive) | > 30 µM (inactive) | > 30 µM (inactive) | > 30 µM (inactive) | > 30 µM (inactive) | > 30 µM (inactive) | > 30 µM (inactive) | > 30 µM (inactive) | > 30 µM (inactive) | > 30 µM (inactive) |  | > 30 µM (inactive) | CNC(=O)c1cccc2cc(Oc3ccnc4cc(OCC5(N)CC5)c(OC)cc34)ccc12 [LUCITANIB]
> 30 µM (inactive) | > 30 µM (inactive) | > 30 µM (inactive) | 22.5 µM (active) | > 30 µM (inactive) | 2.3 µM (active) | > 30 µM (inactive) | 3.87 µM (active) | > 30 µM (inactive) | 1.23 µM | > 30 µM (inactive) |  | > 30 µM (inactive) | > 30 µM (inactive) | 0.667 µM (active) | > 30 µM (inactive) | > 30 µM (inactive) |  | > 30 µM (inactive) | Cc1nc(Nc2n[nH]c3c2CN(C(=O)N[C@H](CN(C)C)c2ccccc2)C3(C)C)c2sccc2n1 [PF-03758309]
> 30 µM (inactive) | 0.558 µM | > 30 µM (inactive) | > 30 µM (inactive) | > 30 µM (inactive) | > 30 µM (inactive) | > 30 µM (inactive) | > 30 µM (inactive) | > 30 µM (inactive) | 0.328 µM (active) | 5.36 µM (active) | > 30 µM (inactive) | > 30 µM (inactive) | > 30 µM (inactive) | 6.17 µM (active) | > 30 µM (inactive) | 28.9 µM (active) |  | 1.47 µM (active) | CCS(=O)(=O)c1cccc(-c2cc(C(=O)NC3CCN(C)CC3)c(C)c3[nH]c4ncc(C)cc4c23)c1 [TAK-901]
